According to paper PMC9249808, “A novel lipidic peptide with potential to promote balanced effector-regulatory T cell responses” (Scientific Reports, 2022):

Columns and labels:
Lck = test: Kinase profiling, Lck; format: biochemical; settings: Eurofins KinaseProfiler, [γ-33P-ATP] scintillation, 0.003-10 uM, 2% DMSO, no pre-incubation, Fig. 6c, 6e
Procedure: Non-cell-based kinase profiling assays were performed by Eurofins (France). All compounds were prepared to 50 × final assay concentration in 100% DMSO. This working stock of the compound was added to assay wells as the first component in the reaction, followed by the remaining components as detailed in the specific assay protocols below. In the standard KinaseProfiler service, there was no pre-incubation step between the compound and the kinase prior to initiation of the reaction. Control wells contained all components of the reaction, except the compound of interest; however, DMSO (at a final concentration of 2%) was included in these wells to control for solvent effects. […] The reference inhibitors for each kinase are indicated in the methods for each kinase assay. […] Kinase activities were assessed in the presence of compounds at a concentration range of 0.003 -10 uM and the following kinases were tested: c-Src, Lck, Jak1, Jak2, Tyk2, CaMKIV and HPK1 (MAP4K1). Reactions between IK14004, substrates and MgAcetate/[γ^33P-ATP] mixes for each respective kinase were stopped by the addition of phosphoric acid and reaction mixtures spotted on P30 filtermats for scintillation according to the detailed methods available from Eurofins. The activities of Lck and c-Src were also assessed in the presence of the unconjugated components of IK14004, i.e., […] (IK14000) and the dodecanoic acid moiety [(2)Adod]4 (IK00041) and a lipidic peptide containing substituted amino acid residues (IK14DE04).

c-Src = settings: cited from earlier work
Text: Given the role of NFAT proteins in regulating transcription of IFN-γ[46],[47], suppression of NFAT attenuates IFN-γ-activated endogenous IL-12p40 mRNA expression. In addition, IFN-γ production in DCs is dependent on a Janus kinase (JAK) family member, Tyk2, that signals via signal transducers and activators of transcription (STATs)[49] and within DCs, c-Src contributes to c ... || Given the role of Lck in upstream signalling upon TCR activation[34],[35] which leads to IL-2 production[10],[11], we tested the effect of a known Lck inhibitor, A-770041 on IL-2 expression within supernatants from stimulated T cell cultures after 72 h.

[1] = system: CD8+ T cells within PBMC cultures; test: Intracellular IFN-γ in CD8+ T cells within PBMC cultures (flow cytometry); format: cell-based, human; settings: anti-CD3, 24 h, MFI, n = 4, Fig. 5d
Procedure: PBMCs were resuspended in RPMI-10 (RPMI-1640; ThermoFisher) supplemented with 10% heat inactivated Foetal Bovine Serum (LabTech), 100 U/mL penicillin, 100 µg/mL streptomycin (ThermoFisher), 2 mM L-glutamine (ThermoFisher), and 50 µM β-mercaptoethanol (ThermoFisher) at 1 × 10^6 cells/mL and plated at a density of 1 × 10^5 per well (100 µL) in 96-well, flat-bottom culture plates. PBMCs were stimulated with 1 µg/mL of soluble anti-CD3 (BioLegend). The lipidic peptide, IK14004, and IK14000, i.e., […] minus conjugation to [{2}Adod]4, were solubilised as a 1 mM stock solution in sterile milliQ water (Lonza) and added to wells at a final volume of 50 µL per well together with soluble anti-CD3 (1 µg/mL final, 50 µL per well) (Biolegend). To test the effect of peptides, cells were cultured for 24–72 h at 37 °C and 5% CO2. Vehicle controls in peptide-based experiments comprised 0.13% sterile milliQ water in culture medium whereas 0.1% DMSO in culture medium was used as vehicle control for comparison with the Lck inhibitor, A-770041, in the absence of peptides. […]

## RSKAKNPLYR [IK14000]
Lck
  Lck activity: neither IK14000 nor IK00041 had an effect
c-Src
  c-Src activity, earlier report: inhibits c-Src activity
[1]
  intracellular expression of IFN-γ in CD8+ T cells: unchanged
